Reference: paper PMC7785020, “A unique hormonal recognition feature of the human glucagon-like peptide-2 receptor” (Cell Research, 2020)
Changes are numbered by the printed parent chain.

Tests used:
GLP-2R Y252^ECL1A = target: T1, GLP-2R Y252^ECL1A (Homo sapiens, UniProt O95838, Y252A); test: radioligand competition binding, Y252^ECL1A; parameters: WT (1–553); expressed in transfected cells; conditions: COS-7, Y252^ECL1A; [^125I]GLP-2(1–33, M10Y) 10–15 pM, 4 h, 4 °C; mean ± SEM, n ≥ 3 in duplicate
T1 sequence (O95838 1-553 Y252A): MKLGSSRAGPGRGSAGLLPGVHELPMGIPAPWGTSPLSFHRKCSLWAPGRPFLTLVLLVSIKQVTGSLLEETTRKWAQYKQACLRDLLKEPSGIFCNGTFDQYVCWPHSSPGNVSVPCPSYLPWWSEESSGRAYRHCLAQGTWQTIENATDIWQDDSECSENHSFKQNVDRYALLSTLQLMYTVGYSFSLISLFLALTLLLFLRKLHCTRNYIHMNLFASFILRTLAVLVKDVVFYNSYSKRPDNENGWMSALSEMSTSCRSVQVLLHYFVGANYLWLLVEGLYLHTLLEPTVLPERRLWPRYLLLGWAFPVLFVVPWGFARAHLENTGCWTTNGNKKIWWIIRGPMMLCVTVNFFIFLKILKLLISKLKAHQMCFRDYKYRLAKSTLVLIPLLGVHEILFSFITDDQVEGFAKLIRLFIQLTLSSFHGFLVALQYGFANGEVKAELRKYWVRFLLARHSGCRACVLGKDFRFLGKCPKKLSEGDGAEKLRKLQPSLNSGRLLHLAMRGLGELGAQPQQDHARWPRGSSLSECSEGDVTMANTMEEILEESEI
Experimental: (§1) A stepwise oxidation reaction was performed by addition of 6 aliquots of 5 µL ChloramineT (30 µL/mL) with a 1-min interval during constant stirring. The reaction was terminated by the addition of 400 µL phase A (0.1% trifluoracetic acid) before being fractionated into 1 mL volume by reverse-phase high-performance liquid chromatography (RP-HPLC, Waters 600 SimiPrep system) on a C18 column. The iodinated protein was […] by increasing concentrations of phase B (Acetonitrile + 0.1% TFA) and tested for competitive binding ability.
(§2) One day before transfection, the COS-7 cells were seeded in 75 cm^2 culture flasks (3 million cells/flask) in DMEM, containing 3.9 g/L NaHCO3 and supplemented with 10% FBS, 1% L-glutamine, 180 units/mL penicillin and 45 µg/mL streptomycin. After an overnight culture at 37 °C, 10% CO2 and 95% air humidity, the cells were transiently transfected with different GLP-2R constructs or pcDNA3.1 vector as previously described.[52] Following 24-h incubation, the cells were transferred to Costa® microtiter plates (150,000 cells/well, PerkinElmer) to achieve a 5%–10% specific binding. […] The cells were then washed twice in binding buffer (4 °C), lysed and counted for radioactivity using a Wallac Gamma Counter (PerkinElmer).

GLP-2R D244^ECL1A = target: T2, GLP-2R D244^ECL1A (Homo sapiens, UniProt O95838, D244A); test: radioligand competition binding, D244^ECL1A; parameters: WT (1–553); expressed in transfected cells; conditions: COS-7, D244^ECL1A; [^125I]GLP-2(1–33, M10Y) 10–15 pM, 4 h, 4 °C; mean ± SEM, n ≥ 3 in duplicate
T2 sequence (O95838 1-553 D244A): T1 sequence (O95838 1-553 Y252A) with D244A, A252Y
Experimental: as §1, §2

GLP-2R WT (1–553) = target: T3, GLP-2R WT (1–553) (Homo sapiens, UniProt O95838); test: radioligand competition binding, WT; conditions: COS-7, WT (1–553); [^125I]GLP-2(1–33, M10Y) 10–15 pM, 4 h, 4 °C; mean ± SEM, n ≥ 3 in duplicate
T3 construct: WT (1–553); expressed in transfected cells; host or cells: COS-7
Experimental: as §1, §2

GLP-2R N334^ECL2A = target: T4, GLP-2R N334^ECL2A (Homo sapiens, UniProt O95838, N334A); test: radioligand competition binding, N334^ECL2A; parameters: WT (1–553); expressed in transfected cells; host or cells: COS-7; conditions: COS-7, N334^ECL2 A; [^125I]GLP-2(1–33, M10Y) 10–15 pM, 4 h, 4 °C; mean ± SEM, n ≥ 3 in duplicate
T4 sequence (O95838 1-553 N334A): T1 sequence (O95838 1-553 Y252A) with A252Y, N334A
Experimental: as §1, §2

T3 sequence (O95838 whole entry): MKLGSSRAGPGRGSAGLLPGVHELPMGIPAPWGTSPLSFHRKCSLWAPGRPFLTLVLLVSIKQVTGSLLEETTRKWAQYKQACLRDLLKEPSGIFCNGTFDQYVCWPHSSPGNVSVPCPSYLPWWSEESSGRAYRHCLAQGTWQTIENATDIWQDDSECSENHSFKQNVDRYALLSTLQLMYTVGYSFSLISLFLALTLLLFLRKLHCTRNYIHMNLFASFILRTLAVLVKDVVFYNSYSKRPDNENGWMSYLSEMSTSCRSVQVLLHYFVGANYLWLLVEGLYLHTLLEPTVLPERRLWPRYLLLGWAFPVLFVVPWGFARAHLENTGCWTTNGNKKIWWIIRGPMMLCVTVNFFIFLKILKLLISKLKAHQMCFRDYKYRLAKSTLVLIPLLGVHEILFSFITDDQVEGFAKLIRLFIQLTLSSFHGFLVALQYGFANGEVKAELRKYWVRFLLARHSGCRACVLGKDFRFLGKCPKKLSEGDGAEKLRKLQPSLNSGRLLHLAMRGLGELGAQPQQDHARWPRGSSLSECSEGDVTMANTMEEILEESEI

Row | Compound | % Binding of WT (GLP-2R Y252^ECL1A) [%] | % Binding of WT (GLP-2R D244^ECL1A) [%] | % Binding of WT (GLP-2R WT (1–553)) [%] | % Binding of WT (GLP-2R N334^ECL2A) [%]
1 | CC[C@H](C)[C@H](NC(=O)[C@H](Cc1ccccc1)NC(=O)[C@H](CC(=O)O)NC(=O)[C@H](CCCNC(=N)N)NC(=O)[C@H](C)NC(=O)[C@H](C)NC(=O)[C@H](CC(C)C)NC(=O)[C@H](CC(N)=O)NC(=O)[C@H](CC(=O)O)NC(=O)[C@H](CC(C)C)NC(=O)[C@@H](NC(=O)[C@@H](NC(=O)[C@H](CC(N)=O)NC(=O)[C@H](CCSC)NC(=O)[C@H](CCC(=O)O)NC(=O)[C@H](CC(=O)O)NC(=O)[C@H](CO)NC(=O)[C@H](Cc1ccccc1)NC(=O)[C@H](CO)NC(=O)CNC(=O)[C@H](CC(=O)O)NC(=O)[C@H](C)NC(=O)[C@@H](N)Cc1c[nH]cn1)[C@@H](C)O)[C@@H](C)CC)C(=O)N[C@@H](CC(N)=O)C(=O)N[C@@H](Cc1c[nH]c2ccccc12)C(=O)N[C@@H](CC(C)C)C(=O)N[C@H](C(=O)N[C@@H](CCC(N)=O)C(=O)N[C@H](C(=O)N[C@@H](CCCCN)C(=O)N[C@H](C(=O)N[C@H](C(=O)N[C@@H](CC(=O)O)C(=O)O)[C@@H](C)O)[C@@H](C)CC)[C@@H](C)O)[C@@H](C)CC [Human GLP-2 (1–33)] | 8.3 ± 1.8 | 69.1 ± 4.9 | 99.2 ± 2.3 | 2.4 ± 1.3
2 | CC[C@H](C)[C@H](NC(=O)[C@H](Cc1ccccc1)NC(=O)[C@H](CC(=O)O)NC(=O)[C@H](CCCNC(=N)N)NC(=O)[C@H](C)NC(=O)[C@H](C)NC(=O)[C@H](CC(C)C)NC(=O)[C@H](CC(N)=O)NC(=O)[C@H](CC(=O)O)NC(=O)[C@H](CC(C)C)NC(=O)[C@@H](NC(=O)[C@@H](NC(=O)[C@H](CC(N)=O)NC(=O)[C@H](CCSC)NC(=O)[C@H](CCC(=O)O)NC(=O)[C@H](CC(=O)O)NC(=O)[C@H](CO)NC(=O)[C@H](Cc1ccccc1)NC(=O)[C@H](CO)NC(=O)CNC(=O)[C@H](CC(=O)O)NC(=O)CNC(=O)[C@@H](N)Cc1c[nH]cn1)[C@@H](C)O)[C@@H](C)CC)C(=O)N[C@@H](CC(N)=O)C(=O)N[C@@H](Cc1c[nH]c2ccccc12)C(=O)N[C@@H](CC(C)C)C(=O)N[C@H](C(=O)N[C@@H](CCC(N)=O)C(=O)N[C@H](C(=O)N[C@@H](CCCCN)C(=O)N[C@H](C(=O)N[C@H](C(=O)N[C@@H](CC(=O)O)C(=O)O)[C@@H](C)O)[C@@H](C)CC)[C@@H](C)O)[C@@H](C)CC [Teduglutide] | 6.3 ± 1.7 | 77.5 ± 5.7 | 99.7 ± 1.9 | 2.0 ± 2.1
